Test results taken from US6632456B1, “Compositions for inhalation” (AstraZeneca AB, priority 1994, dated 2003).
Where a name gives a salt, the structure may show the parent alone.

Experiments:
[1] = Enhancement of insulin uptake after powder inhalation in a rat model (blood glucose); type: in vivo, rats; settings: for Effect (decrease in blood glucose level): rats, inhaled powder; for enhancement of polypeptide (insulin) absorption in the lung: rat model of Example 2, substance tested as enhancer
Procedure: Each of the compounds listed in Table I was tested for its ability to enhance uptake of a polypeptide (insulin) in a rat model.
Various forms of insulin were employed in the different trials: recombinant human, semisynthetic human or bovine. Each formulation was prepared as above, drying and processing the insulin/enhancer or insulin/enhancer/lactose solution to produce an inhalable powder. The powder was administered to rats by inhalation, and the blood glucose levels of the rats were subsequently monitored as a measure of insulin uptake. These levels were compared to the corresponding values obtained from rats which had inhaled insulin formulations without enhancer.

[2] = test system: CaCo-2 epithelial cell monolayer; test: CaCo-2 epithelial cell monolayer transport assay; type: in vitro ADME; settings: for transport rate across the monolayer: CaCo-2, up to 16 mM sodium caprate
Procedure: A standard in vitro assay utilizing an epithelial cell line, CaCo-2 (available through the American Type Culture Collection (ATCC), Rockville, Md., USA), has been developed to assess the ability of various enhancer compounds to promote transport of markers across an epithelial cell monolayer, as a model for the epithelial cell layer which functions in the lung to separate the alveolus from the pulmonary blood supply.
In this assay, the enhancer and polypeptide or other marker are dissolved in aqueous solution at various proportions and/or concentrations, and applied to the apical side of the cell monolayer. After 60 min incubation at 37° C. and 95% RH (relative humidity), the amount of the marker on the basolateral side of the cells is determined, e.g., by use of a radioactively labelled marker.

[3] = design: species or system rats; settings: rat, in vivo
Procedure: The mixture was milled in a Retsch mechanical mill to a particle size of mass median diameter 6.7 μm. The resultant powder was administered intratraceally in rats and the uptake of hGH compared with that of a powder, MMD 9.6 μm, comprising hGH and mannitol in the same proportions and prepared in the same way as above.

[4] = Enhancer:Insulin:lactose 2:4:94, vs insulin without enhancer
[5] = Enhancer:Insulin:lactose 4:4:92, vs insulin without enhancer
[6] = Enhancer:Insulin:lactose 25:75:0, vs insulin without enhancer

CCCCCCCCCC(=O)OC[C@H](COP(=O)([O-])OCC[N+](C)(C)C)OC(=O)CCCCCCCCC [Didecanoylphospatidylcholine]
Effect (decrease in blood glucose level) ([1]; Enhancer:Insulin:lactose 4:4:94, vs insulin without enhancer): −

CCCCCCCC(=O)OCC(COP(=O)([O-])OCC[N+](C)(C)C)OC(=O)CCCCCCC (centres unmarked) [Dioctanoylphosphatidylcholine]
Effect (decrease in blood glucose level) [1, 4]: (+)

CCCCCCCCOC1O[C@H](CO)[C@@H](O)[C@H](O)[C@H]1O (some centres unmarked) [Octylglucopyranoside]
enhancement of polypeptide (insulin) absorption in the lung [1]: some absorption enhancing properties
Effect (decrease in blood glucose level) [1, 5]: (+)

CCCCCCCCCC(=O)[O-].[K+] [Potassium caprate]
enhancement of polypeptide (insulin) absorption in the lung [1]: effective
Effect (decrease in blood glucose level) ([1]; Enhancer:Insulin:lactose 27:73:0, vs insulin without enhancer): +

CCCCCCCC/C=C\CCCCCCCC(=O)[O-].[K+] [Potassium oleate]
Effect (decrease in blood glucose level) [1, 5]: +

CCCCCCCCCC(=O)[O-].[Na+] [Sodium caprate]
amount of marker (mannitol) which appears on the basolateral side, insulin added ([2]; CaCo-2 monolayer, 1:3 sodium caprate:insulin by weight (FIG. 2)): This is true
amount of marker (mannitol) which appears on the basolateral side ([2]; CaCo-2 monolayer, 60 min, 37° C., up to 16 mM sodium caprate (FIG. 1)): dependent upon the concentration of enhancer used
enhancement of polypeptide (insulin) absorption in the lung [1]: perform well
Effect (decrease in blood glucose level) [1, 5]: +
Effect (decrease in blood glucose level) ([1]; Enhancer:Insulin:lactose 10:90:0, vs insulin without enhancer): (+)
Effect (decrease in blood glucose level) ([1]; Enhancer:Insulin:lactose 17.5:82.5:0, vs insulin without enhancer): (+)
Effect (decrease in blood glucose level) [1, 6]: +

CCCCCCCC(=O)[O-].[Na+] [Sodium caprylate]
Effect (decrease in blood glucose level) [1, 6]: −

C[C@H](CCC(=O)NCC(=O)[O-])[C@H]1CC[C@H]2[C@@H]3[C@H](O)C[C@@H]4C[C@H](O)CC[C@]4(C)[C@H]3C[C@H](O)[C@]12C.[Na+] [Sodium glycocholate]
enhancement of polypeptide (insulin) absorption in the lung [1]: effectively enhance polypeptide absorption in the lung
Effect (decrease in blood glucose level) [1, 5]: +

CCCCCCCCCCCC(=O)[O-].[Na+] [Sodium laurate]
enhancement of polypeptide (insulin) absorption in the lung [1]: perform well
Effect (decrease in blood glucose level) [1, 6]: (+)

CCCCCCCCCCCCCC(=O)[O-].[Na+] [Sodium myristate]
enhancement of polypeptide (insulin) absorption in the lung [1]: perform well
Effect (decrease in blood glucose level) ([1]; Enhancer:Insulin:lactose 30:70:0, vs insulin without enhancer): +

C[C@H](CCC(=O)NCCS(=O)(=O)O)[C@H]1CC[C@H]2[C@@H]3[C@H](O)C[C@@H]4C[C@H](O)CC[C@]4(C)[C@H]3C[C@H](O)[C@]12C [Sodium taurocholate]
enhancement of polypeptide (insulin) absorption in the lung [1]: effectively enhance polypeptide absorption in the lung
Effect (decrease in blood glucose level) [1, 5]: +

CC(=O)OC1CC2(C)C(CC(O)C3C4(C)CCC(O)C(C)C4CCC32C)C1=C(CCCC(C)C)C(=O)NCCS(=O)(=O)O (centres unmarked) [Sodium taurodihydrofusidate]
enhancement of polypeptide (insulin) absorption in the lung [1]: effectively enhance polypeptide absorption in the lung
Effect (decrease in blood glucose level) [1, 4]: +

C[C@H](CCC(=O)[O-])[C@H]1CC[C@H]2[C@@H]3[C@@H](O)C[C@@H]4C[C@H](O)CC[C@]4(C)[C@H]3CC[C@]12C.[Na+] [Sodium ursodeoxycholate]
enhancement of polypeptide (insulin) absorption in the lung [1]: effectively enhance polypeptide absorption in the lung
Effect (decrease in blood glucose level) [1, 5]: +

O=C(O)CN(CCN(CC(=O)O)CC(=O)O)CC(=O)O [sodium salt of ethylenediaminetetraacetic acid]
enhancement of polypeptide (insulin) absorption in the lung [1]: ineffective

Dimethyl-β-cyclodextrin
enhancement of polypeptide (insulin) absorption in the lung [1]: absorption enhancing effect
Effect (decrease in blood glucose level) ([1]; Enhancer:Insulin:lactose 75:25:0, vs insulin without enhancer): +

Lysine caprate
enhancement of polypeptide (insulin) absorption in the lung [1]: effective
Effect (decrease in blood glucose level) ([1]; Enhancer:Insulin:lactose 35:65:0, vs insulin without enhancer): +

Lysophosphatidylcholine
enhancement of polypeptide (insulin) absorption in the lung [1]: effective enhancer
Effect (decrease in blood glucose level) [1, 5]: +

albumin
transport rate across the monolayer [2]: no increase in transport rate

carbonic anhydrase
transport rate across the monolayer [2]: no increase in transport rate

cytochrome C
transport rate across the monolayer [2]: no increase in transport rate

hGH: Human hormone (hGH, MW 22 kD, source Humatrope from Lilly), 3 parts mixed with sodium caprate (1 part), milled powder
uptake of hGH [3]: improvement in the uptake
